Legend:
Test in all cases: in vitro antibacterial evaluation, MIC by broth dilution
Type in all cases: cell-based
[1] = tested on: Escherichia coli
Method in brief: (§1)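 Following National Committee for Clinical Laboratory Standards recommendations (M7-A2), susceptibility was measured by dilution in Muller-Hinton II […]. Bacteria were seeded at 5×10^5 CFU/mL against compound concentrations from 64 down to 0.06 μg/mL.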

[2] = tested on: Staphylococcus sp.; conditions: broth dilution, 18 hours at 35° C.; for MIC Staphylococcus aureus (GC 1131): strain GC 1131
Method in brief: as §1

[3] = tested on: Enterococcus sp.; conditions: broth dilution, 18 hours at 35° C.; for MIC Enterococcus faecalis (ATCC 29212): strain ATCC 29212; for MIC Enterococcus faecalis (GC 2242): strain GC 2242; for MIC Enterococcus faecium (GC 2243): strain GC 2243; for MIC Enterococcus faecalis (GC 2691): strain GC 2691; for MIC Enterococcus faecalis (GC 3059): strain GC 3059; for MIC Enterococcus faecalis (GC 4552): strain GC 4552; for MIC Enterococcus faecalis (GC 4553): strain GC 4553; for MIC Enterococcus faecalis (GC 4554): strain GC 4554; for MIC Enterococcus faecium (GC 4556): strain GC 4556; for MIC Enterococcus faecium (GC 4557): strain GC 4557; for MIC Enterococcus avium (GC 4558): strain GC 4558; for MIC Enterococcus faecalis (GC 6189): strain GC 6189
Method in brief: as §1

[4] = tested on: Streptococcus sp.; conditions: broth dilution, 18 hours at 35° C.; for MIC Streptococcus pneumoniae (ATCC 6301): strain ATCC 6301; for MIC Streptococcus pneumoniae (GC 1894): strain GC 1894; for MIC Streptococcus pyogenes (GC 4563): strain GC 4563; for MIC Streptococcus agalactiae (GC 4564): strain GC 4564; for MIC Streptococcus pneumoniae (GC 4565): strain GC 4565
Method in brief: as §1

CC(c1ccccc1)C1NC(=O)CNC(=O)C(CO)NC(=O)C(C(O)C2CNC(=N)N2C2OC(CO)C(O)C(O)C2O)NC(=O)C(C(O)C2CNC(=N)N2)NC(=O)C(Cc2ccc(OC3OC(CO)C(OC4OC(CO)C(O)C5OC(c6ccc(-c7ccsc7)cc6)OC45)C(O)C3O)cc2)NC1=O (stereo not drawn) [Example 164a]
8 µg/mL: MIC Escherichia coli (GC 4560) ([1]; strain GC 4560, 18 hours at 35° C.) | MIC Staphylococcus aureus (GC 1131) ([2]; inoculum 5×10^5 CFU/mL) | MIC Staphylococcus aureus (ATCC 29213) ([2]; strain ATCC 29213) | MIC Staphylococcus aureus (GC 1131) [2] | MIC Staphylococcus aureus (GC 3051) ([2]; strain GC 3051) | MIC Staphylococcus aureus (GC 3053) ([2]; strain GC 3053) | MIC Staphylococcus aureus (GC 4541) ([2]; strain GC 4541) | MIC Staphylococcus aureus-SMITH (GC 4543) ([2]; strain GC 4543) | MIC Staphylococcus aureus (GC 4544) ([2]; strain GC 4544) | MIC Staphylococcus aureus (GC 4545) ([2]; strain GC 4545) | MIC Coagulase Negative Staphylococcus (GC 4547) ([2]; strain GC 4547) | MIC Coagulase Negative Staphylococcus (GC 4551) ([2]; strain GC 4551) | MIC Staphylococcus aureus-SMITH (GC 4543) ([2]; strain SMITH GC 4543) | MIC Enterococcus faecium (GC 2243) ([3]; inoculum 5×10^5 CFU/mL) | MIC Enterococcus avium (GC 4558) ([3]; inoculum 5×10^5 CFU/mL) | MIC Enterococcus faecium (GC 2243) [3] | MIC Enterococcus avium (GC 4558) [3]
0.25 µg/mL: MIC Streptococcus pneumoniae (GC 1894) ([4]; inoculum 5×10^5 CFU/mL) | MIC Streptococcus pneumoniae (GC 1894) [4]
1 µg/mL: MIC Streptococcus pneumoniae (ATCC 6301) ([4]; inoculum 5×10^5 CFU/mL) | MIC Streptococcus agalactiae (GC 4564) ([4]; inoculum 5×10^5 CFU/mL) | MIC Streptococcus pneumoniae (GC 4565) ([4]; inoculum 5×10^5 CFU/mL) | MIC Streptococcus pneumoniae (ATCC 6301) [4] | MIC Streptococcus agalactiae (GC 4564) [4] | MIC Streptococcus pneumoniae (GC 4565) [4]
4 µg/mL: MIC Staphylococcus haemolyticus (GC 4546) ([2]; strain GC 4546) | MIC Coagulase Negative Staphylococcus (GC 4548) ([2]; strain GC 4548) | MIC Coagulase Negative Staphylococcus (GC 4549) ([2]; strain GC 4549) | MIC Coagulase Negative Staphylococcus (GC 6257) ([2]; strain GC 6257) | MIC Enterococcus faecium (GC 4557) ([3]; inoculum 5×10^5 CFU/mL) | MIC Enterococcus faecium (GC 4557) [3]
32 µg/mL: MIC Escherichia coli (ATCC 25922) ([1]; strain ATCC 25922, 18 hours at 35° C.) | MIC Escherichia coli (GC 4559) ([1]; strain GC 4559, 18 hours at 35° C.)
16 µg/mL: MIC Staphylococcus aureus (GC 4542) ([2]; strain GC 4542) | MIC Enterococcus faecalis (ATCC 29212) ([3]; inoculum 5×10^5 CFU/mL) | MIC Enterococcus faecalis (GC 2242) ([3]; inoculum 5×10^5 CFU/mL) | MIC Enterococcus faecalis (GC 2691) ([3]; inoculum 5×10^5 CFU/mL) | MIC Enterococcus faecalis (GC 3059) ([3]; inoculum 5×10^5 CFU/mL) | MIC Enterococcus faecalis (GC 4552) ([3]; inoculum 5×10^5 CFU/mL) | MIC Enterococcus faecalis (GC 4553) ([3]; inoculum 5×10^5 CFU/mL) | MIC Enterococcus faecalis (GC 4554) ([3]; inoculum 5×10^5 CFU/mL) | MIC Enterococcus faecium (GC 4556) ([3]; inoculum 5×10^5 CFU/mL) | MIC Enterococcus faecalis (GC 6189) ([3]; inoculum 5×10^5 CFU/mL) | MIC Enterococcus faecalis (ATCC 29212) [3] | MIC Enterococcus faecalis (GC 2242) [3] | MIC Enterococcus faecalis (GC 2691) [3] | MIC Enterococcus faecalis (GC 3059) [3] | MIC Enterococcus faecalis (GC 4552) [3] | MIC Enterococcus faecalis (GC 4553) [3] | MIC Enterococcus faecalis (GC 4554) [3] | MIC Enterococcus faecium (GC 4556) [3] | MIC Enterococcus faecalis (GC 6189) [3]
0.5 µg/mL: MIC Streptococcus pyogenes (GC 4563) ([4]; inoculum 5×10^5 CFU/mL) | MIC Streptococcus pyogenes (GC 4563) [4]
